This is an account of results in publication PMC10940605, “Design, synthesis and in vitro anticancer activity of some new lomefloxacin derivatives” (Scientific Reports, 2024).

The test system of one assay is HL-60(TB). In words: NCI-60 SRB screen. As to conditions: Homo sapiens, 10^–5 Molar, read-out: Percent growth inhibition. In kind it is cell-based.
For another assay, the system named is MOLT-4. As to the kind of experiment: NCI-60 SRB screen. It counts as cell-based. As to conditions: Homo sapiens; MOLT-4, 10^–5 Molar; read-out: Percent growth inhibition.
In another assay the test system is RPMI-8226. As to the kind of experiment: NCI-60 SRB screen. It counts as cell-based. As to conditions: Homo sapiens; RPMI-8226, 10^–5 Molar; read-out: Percent growth inhibition.
Another assay relates to M14. In words: NCI-60 SRB screen. In kind it is cell-based. As to conditions: Homo sapiens; M14, 10^–5 Molar; read-out: Percent growth inhibition. Summed up: (§1)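 After a 24 h pre-incubation, the cells received test compound at a single 10^−5 M dose and were incubated a further 48 h. Endpoint was SRB dye binding.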
A further assay deals with SK-MEL-2. In words: NCI-60 SRB screen. It counts as cell-based. As to conditions: Homo sapiens; SK-MEL-2, 10^–5 Molar; read-out: Percent growth inhibition. Summed up: as §1
A further assay relates to COLO 205. As to the kind of experiment: NCI-60 SRB screen. In kind it is cell-based. As to conditions: Homo sapiens, 48 h; COLO 205, 10^–5 Molar; read-out: Percent growth inhibition.
The subject of another assay is HT29. In words: NCI-60 SRB screen. It counts as cell-based. As to conditions: Homo sapiens, HT-29; HT29, 10^–5 Molar; read-out: Percent growth inhibition.
A further assay concerns UACC-257. In words: NCI-60 SRB screen. In kind it is cell-based. As to conditions: Homo sapiens; UACC-257, 10^–5 Molar; read-out: Percent growth inhibition.
The subject of a further assay is OVCAR-3. In words: NCI-60 SRB screen. In kind it is cell-based. As to conditions: Homo sapiens; OVCAR-3, 10^–5 Molar; read-out: Percent growth inhibition.
For the next assay, the system named is TK-10. As to the kind of experiment: NCI-60 SRB screen. In kind it is cell-based. As to conditions: Homo sapiens; TK-10, 10^–5 Molar; read-out: Percent growth inhibition.
The test system of another assay is DU-145. As to the kind of experiment: NCI-60 SRB screen. It counts as cell-based. As to conditions: Homo sapiens; DU-145, 10^–5 Molar; read-out: Percent growth inhibition.
The test system of assay [1] is 60 human cancer cell lines. As to the kind of experiment: NCI-60 SRB screen, whole panel. It counts as cell-based.
The next assay addresses T1, topoisomerase IIα (Homo sapiens, UniProt P11388).
T1 construct: purchased MBS2885049
As to the kind of experiment: Topoisomerase ELISA kit inhibitory assay. In kind it is biochemical. As to conditions: four concentrations. As for the experimental part:
Four concentrations were used and IC50 was calculated.
Compound 3a,b,c,e were evaluated for topoisomerase IIα inhibitory activity utilizing the human DNA topoisomerase ELISA kit (MBS2885049) and following the provided procedure: • Standards and the tested compound were dissolved in sample diluent and tenfold serial dilution was achieved. • Biotin-conjugated antibody and avidin conjugated Horseradish Peroxidase (HRP-avidin) were diluted to tenfolds. • 100 µL of each concentration of standard or test compounds were added to each well and incubated at 37 °C for 1 h. • Removal of the liquid in each well was done. • To each well 100 µL of Biotin-conjugated antibody solution was added followed by incubation for 1 h at 37 °C. • The microtiter plate was allowed to aspirate and washed 3 times. • 100 µL of avidin conjugated Horseradish Peroxidase (HRP-avidin) solution was added to each well and incubatation for 1 h at 37 °C was achieved. • The plate was aspirated and washed 5 times. • Addition of 90 µL of 3,3′,5,5′-tetramethylbenzidine (TMB) substrate to each well followed by plate incubated for 30 min at 37 °C and protection from light was done. • 50 µL stop solution was added.
For orientation: In an ELISA, binding on a coated surface is turned into a signal by an enzyme label.

Some results are limits rather than exact numbers.

T1 sequence (P11388 whole entry): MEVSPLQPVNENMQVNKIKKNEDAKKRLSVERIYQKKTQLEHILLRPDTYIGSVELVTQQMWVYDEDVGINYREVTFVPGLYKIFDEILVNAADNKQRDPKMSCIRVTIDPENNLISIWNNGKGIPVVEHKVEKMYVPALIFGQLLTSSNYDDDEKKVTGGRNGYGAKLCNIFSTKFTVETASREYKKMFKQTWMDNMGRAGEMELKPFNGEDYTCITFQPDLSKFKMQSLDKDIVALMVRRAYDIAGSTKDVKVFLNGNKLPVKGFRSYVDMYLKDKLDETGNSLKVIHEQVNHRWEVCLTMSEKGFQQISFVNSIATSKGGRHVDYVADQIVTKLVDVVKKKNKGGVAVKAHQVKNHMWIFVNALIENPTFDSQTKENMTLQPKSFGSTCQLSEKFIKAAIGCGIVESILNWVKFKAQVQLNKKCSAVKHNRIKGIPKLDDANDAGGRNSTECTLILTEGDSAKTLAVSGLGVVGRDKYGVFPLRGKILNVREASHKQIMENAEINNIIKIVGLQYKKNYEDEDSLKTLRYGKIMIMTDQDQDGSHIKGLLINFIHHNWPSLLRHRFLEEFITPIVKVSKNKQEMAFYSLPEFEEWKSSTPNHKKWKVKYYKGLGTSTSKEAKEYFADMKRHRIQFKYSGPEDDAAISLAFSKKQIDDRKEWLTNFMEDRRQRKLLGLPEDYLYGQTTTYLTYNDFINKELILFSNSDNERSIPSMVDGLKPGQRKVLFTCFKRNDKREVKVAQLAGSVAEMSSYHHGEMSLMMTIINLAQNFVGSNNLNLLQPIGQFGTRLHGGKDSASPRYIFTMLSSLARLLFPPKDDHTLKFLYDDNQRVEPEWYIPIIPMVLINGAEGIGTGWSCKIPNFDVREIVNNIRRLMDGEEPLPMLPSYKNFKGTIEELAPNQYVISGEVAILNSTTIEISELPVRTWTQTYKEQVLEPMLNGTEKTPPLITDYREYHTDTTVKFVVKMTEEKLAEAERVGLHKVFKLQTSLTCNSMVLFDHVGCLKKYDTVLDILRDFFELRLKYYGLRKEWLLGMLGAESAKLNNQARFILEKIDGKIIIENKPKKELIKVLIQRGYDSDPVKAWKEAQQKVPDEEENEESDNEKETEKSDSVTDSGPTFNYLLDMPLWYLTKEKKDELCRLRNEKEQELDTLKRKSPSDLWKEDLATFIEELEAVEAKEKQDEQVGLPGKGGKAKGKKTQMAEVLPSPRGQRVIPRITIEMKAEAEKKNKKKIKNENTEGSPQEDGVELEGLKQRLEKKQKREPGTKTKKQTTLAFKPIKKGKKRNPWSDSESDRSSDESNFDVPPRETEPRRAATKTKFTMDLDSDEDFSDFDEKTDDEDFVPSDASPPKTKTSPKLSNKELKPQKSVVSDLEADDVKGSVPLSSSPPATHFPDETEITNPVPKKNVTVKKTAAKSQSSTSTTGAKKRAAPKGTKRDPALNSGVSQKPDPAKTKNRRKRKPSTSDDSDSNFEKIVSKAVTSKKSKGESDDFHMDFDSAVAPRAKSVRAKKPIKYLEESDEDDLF

Take `CCn1cc(C(=O)NN=Cc2ccccc2)c(=O)c2cc(F)c(N3CCNC(C)C3)c(F)c21` (centres unmarked) [Compound 3a, N'-Benzylidene-1-ethyl-6,8-difluoro-7-(3-methylpiperazin-1-yl)-4-oxo-1,4-dihydroquinoline-3-carbohydrazide]: the inhibition (commonly the drop in the measured response relative to a control, in per cent) at 10 µM with HL-60(TB) came out at 81.9%; in the assay on MOLT-4 it was 125%; in the assay with RPMI-8226, 142%; in the assay with M14, 150%; with SK-MEL-2 it was 6.57%; with COLO 205, 174%. The inhibition at 10 µM with HT29 was 192%; with UACC-257, 60.4%; in the assay on OVCAR-3, 175%; with TK-10 it was 17.3%; with DU-145 it was 188%; in assay [1] (Homo sapiens, single dose 10^–5 M, 60 cell lines, read-out: mean percent growth inhibition), over 47%. Also, the activity at 10 µM in [1] (Homo sapiens, 48 h, One Dose Mean Graph, Conc 1.00E-5 Molar, read-out: Mean Growth Percent) was -2.19%. Besides, the LC50 (in general, the concentration that kills 50% of the test population) in [1] (Homo sapiens, mean over panel, Units Molar, read-out: Log10 LC50 _MID (converted)) is 5890 nM. For the same compound, the GI50 (usually the concentration at which growth is held to half of that of the control) in [1] (Homo sapiens, mean over the cell line panel (_MID), Molar, read-out: Mean Log10 GI50 (converted)) was 1700 nM. Also, in assay [1] (mean over panel, Units Molar), the “Log10 TGI _MID” value was -5.49. Also, inhibition against topoisomerase IIα was half-maximal at 1740 nM (IC50).
